# Columns and labels:
# [1] = tested on: Staphylococcus aureus; test: Evaluation of bactericidal function (MIC / minimum bactericidal concentration); format: cell-based; set-up: key: −: exhibited effects of bactericidal action; +: with the exception of the results of Comparative Examples 1 and 2; conditions: at the concentration used in the example; absence of growth 24 hours later
# Method: (§1) Minimum inhibitory concentration (MIC) of the acidic electrolyzed water was measured based on the standard test method of the Japanese Society of Chemotherapy followed by confirming the absence of growth 24 hours later to evaluate the minimum bactericidal concentration and determine if bactericidal effects are present at the concentration used in the example. Minimum inhibitory concentrations (MIC) of the alkaline electrolyzed water and acidic electrolyzed water were respectively measured based on the standard test method of the Japanese Society of Chemotherapy followed by confirming the absence of growth 24 hours later to evaluate the minimum bactericidal concentration and determine if bactericidal effects are present at the concentration used in Example 2-2. Minimum inhibitory concentrations (MIC) of the acidic electrolyzed water and alkaline electrolyzed water were respectively measured based on the standard test method of the Japanese Society of Chemotherapy followed by confirming the absence of growth 24 hours later to evaluate the minimum bactericidal concentration and determine if bactericidal effects are present at the concentration used in Example 3-2. Minimum inhibitory concentration (MIC) of the tap water was measured based on the standard test method of the Japanese Society of Chemotherapy followed by confirming the absence of growth 24 hours later to evaluate the minimum bactericidal concentration and determine if bactericidal effects are present at the concentration used in the example. Minimum inhibitory concentrations (MIC) of the alkaline electrolyzed water was measured based on the standard test method of the Japanese Society of Chemotherapy followed by confirming the absence of growth 24 hours later to evaluate the minimum bactericidal concentration and determine if bactericidal effects are present at the concentration used in Comparative Example 2-2. Minimum inhibitory concentration (MIC) of the 250 ppm sodium hypochlorite was measured based on the standard test method of the Japanese Society of Chemotherapy followed by confirming the absence of growth 24 hours later to evaluate the minimum bactericidal concentration and determine if bactericidal effects are present at the concentration used in Comparative Example 3-2. Minimum inhibitory concentration (MIC) of the 500 ppm sodium hypochlorite was measured based on the standard test method of the Japanese Society of Chemotherapy followed by confirming the absence of growth 24 hours later to evaluate the minimum bactericidal concentration and determine if bactericidal effects are present at the concentration used in Comparative Example 4-2. Minimum inhibitory concentration (MIC) of the 1000 ppm sodium hypochlorite was measured based on the standard test method of the Japanese Society of Chemotherapy followed by confirming the absence of growth 24 hours later to evaluate the minimum bactericidal concentration and determine if bactericidal effects are present at the concentration used in Comparative Example 4-2.
# [2] = tested on: Escherichia coli; test: as above; format: cell-based; set-up: key: −: exhibited effects of bactericidal action; +: with the exception of the results of Comparative Examples 1 and 2; conditions: at the concentration used in the example; absence of growth 24 hours later
# Method: as §1
# [3] = Residual chlorine concentration of recycled pulp (JIS K 0102 33.2); format: physicochemical; conditions: 5.00 g eluted into 100 ml, criterion Less than 1 ppm
# Method: (§2) Eight commercially available disposable diapers (Moony M Size, Unicharm Corp.) that had adsorbed 200 ml of physiological saline were placed in a twin tub compact washing machine (Harebare AST-01, Alumis Co., Ltd.). 80 g of CaO (Wako Pure Chemical Industries, Ltd.) were placed in the washing tub followed by the addition of 6.5 L of acidic electrolyzed water (pH 3, generated with the ESS-ZERO Electrolyzed Water Sanitation System manufactured by Tech Corp.). After washing for 15 minutes, the liquid inside the washing tub was discharged followed by newly adding 6.5 L of acidic electrolyzed water (pH 3, formed with the ESS-ZERO Electrolyzed Water Sanitation System manufactured by Tech Corp.). After washing for 15 minutes, only the pulp that floated in the liquid in the washing tub was skimmed off followed by placing in a mesh pouch (measuring 25 cm on a side, N-No. 250HD, NBC Meshtec Inc.) and dehydrating for 5 minutes in the spin tub (dehydrator). The recycled pulp was rinsed for 15 minutes with running water (tap water) while still in the mesh pouch followed by again dehydrating for 5 minutes in the spin tub (dehydrator). The pulp was then dried for 24 hours with a hot air dryer at 105° C. Recycled pulp was obtained according to the aforementioned method.
# 5.00 g of pulp dried in the same manner as described above were eluted into 100 ml of physiological saline followed by measurement of the chlorine concentration thereof (JIS K 0102 33.2).
# (§3) Eight commercially available disposable diapers (Moony M Size, Unicharm Corp.) that had adsorbed 200 ml of physiological saline were placed in a twin tub compact washing machine (Harebare AST-01, Alumis Co., Ltd.). 80 g of CaO (Wako Pure Chemical Industries, Ltd.) were placed in the washing tub followed by the addition of 6.5 L of alkaline electrolyzed water (pH 12, generated with the ESS-ZERO Electrolyzed Water Sanitation System manufactured by Tech Corp.). […]
# [4] = Evaluation of pH of recycled pulp; format: physicochemical; conditions: 1.00 g dried pulp in 10 ml physiological saline; criterion pH 3.1-9.8
# Method: as §2
# 1.00 g of the dried pulp was weighed out into a beaker followed by the addition of 10 ml of physiological saline. After gently stirring with a glass rod, the pulp was allowed to stand undisturbed for 10 minutes followed by measurement of the liquid inside the beaker with a pH meter (AS-212, As One Corp.).
# as §3
smiles,measurement,setting,value
"OCl [compound 5, sodium hypochlorite]",Bactericidal Effect S. aureus,[1],−
same,Bactericidal Effect E. coli,[2],−
same,Residual Chlorine ppm,[3],1 ppm
same,pH of Recycled Pulp,[4],12.0
"OCl [compound 3, sodium hypochlorite]",Bactericidal Effect S. aureus,[1],−
same,Bactericidal Effect E. coli,[2],−
same,Residual Chlorine ppm,[3],1 ppm
same,pH of Recycled Pulp,[4],12.3
"[Na+].[O-]Cl [compound 4, sodium hypochlorite]",Bactericidal Effect S. aureus,[1],−
same,Bactericidal Effect E. coli,[2],−
same,Residual Chlorine ppm,[3],1 ppm
same,pH of Recycled Pulp,[4],12.2

# — patent US9839708B2, “Method for treating used absorbent article” (Unicharm Corporation, priority 2012, dated 2017)
